Measured values from patent US6358885B1, “Substituted phenylheterocyclic herbicides” (Mississippi State University, priority 1992, dated 2002).

Assays:
bedstraw [1] = test: Test B preemergence/postemergence greenhouse plant response rating 0 to 10; format: in vivo, Galium aparine; settings: for Plant response rating, Bedstraw: 0 to 10 scale
How it was run: (§1)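 Both application timings were run together: seeds got compound preemergence, and established seedlings (two to eighteen cm) got it postemergence. Non-phytotoxic solvent carried the chemical. Ratings are visual, versus controls, at twelve to sixteen days.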

chickweed = test: as above; format: in vivo, Stellaria media; settings: for Plant response rating, Chickweed: 0 to 10 scale
How it was run: as §1

corn [2] = test: as above; format: in vivo, Zea mays; settings: for Plant response rating, Corn: 0 to 10 scale
How it was run: as §1

sugar beet = test: as above; format: in vivo, Beta vulgaris; settings: for Plant response rating, Sugar beet: 0 to 10 scale
How it was run: as §1

wild buckwheat = test: as above; format: in vivo, Polygonum convolvulus; settings: for Plant response rating, Wild buckwheat: 0 to 10 scale
How it was run: as §1

bedstraw [3] = test: Test C preemergence/postemergence greenhouse plant response rating 0 to 100; format: in vivo, Galium aparine; settings: for Plant response rating, Bedstraw: 125 g/ha, 0 to 100 scale
How it was run: (§2)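 Compounds in non-phytotoxic solvent went onto sandy loam before emergence (seeded one day earlier) or onto plants at the one-to-four leaf stage. Duck salad was treated via flood water (~2.5 cm, maintained) over silt loam.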

corn [4] = test: as above; format: in vivo, Zea mays; settings: for Plant response rating, Corn: 125 g/ha, 0 to 100 scale
How it was run: as §2

cotton = test: as above; format: in vivo, Gossypium hirsutum; settings: for Plant response rating, Cotton: 125 g/ha, 0 to 100 scale
How it was run: as §2

downy brome = test: as above; format: in vivo, Bromus tectorum; settings: for Plant response rating Downy Brome: 125 g/ha, 0 to 100 scale
How it was run: as §2

giant foxtail = test: as above; format: in vivo, Setaria faberii; settings: for Plant response rating, Giant foxtail: 125 g/ha, 0 to 100 scale
How it was run: as §2

morningglory = test: as above; format: in vivo, Ipomoea hederacea; settings: for Plant response rating, Morningglory: 125 g/ha, 0 to 100 scale
How it was run: as §2

sorghum = test: as above; format: in vivo, Sorghum bicolor; settings: for Plant response rating, Sorghum: 125 g/ha, 0 to 100 scale
How it was run: as §2

velvetleaf = test: as above; format: in vivo, Abutilon theophrasti; settings: for Plant response rating, Velvetleaf: 125 g/ha, 0 to 100 scale
How it was run: as §2

wheat = test: as above; format: in vivo, Triticum aestivum; settings: for Plant response rating, Wheat: 125 g/ha, 0 to 100 scale
How it was run: as §2

wild oat = test: as above; format: in vivo, Avena fatua; settings: for Plant response rating, Wild oat: 125 g/ha, 0 to 100 scale
How it was run: as §2

duck salad = test: Test C flood test plant response rating 0 to 100; format: in vivo, Heteranthera limosa
How it was run: as §2

barnyardgrass = test: Test C flood test plant response rating 0 to 100; format: in vivo, Echinochloa crus-galli
How it was run: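 Compounds in non-phytotoxic solvent applied preemergence to sandy loam one day after planting, postemergence at the 1–4 leaf stage, or to ~2.5 cm floodwater over silt loam.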

[5] = POSTEMERGENCE section, flood test, Rate 2 g/ha
[6] = Rate 8 g/ha, under POSTEMERGENCE head (flood test species)
[7] = Rate 31 g/ha, under POSTEMERGENCE head (flood test species)
[8] = flood test species listed under POSTEMERGENCE, 125 g/ha, 0 to 100 scale

COCOc1cc(-c2nn3c(c2Cl)CCCC3)c(F)cc1Cl [Compound 58]
Plant response rating, Bedstraw (bedstraw [1]; POSTEMERGENCE, Rate 50 g/ha): 10
Plant response rating, Bedstraw (bedstraw [1]; PREEMERGENCE, Rate 50 g/ha): 6
Plant response rating (0 to 10 scale), Bedstraw (bedstraw [1]; PREEMERGENCE, Rate 200 g/ha): 9
Plant response rating, Bedstraw (bedstraw [1]; Rate 200 g/ha, POSTEMERGENCE): 9
Plant response rating, Chickweed (chickweed; POSTEMERGENCE, Rate 50 g/ha): 9
Plant response rating, Chickweed (chickweed; PREEMERGENCE, Rate 50 g/ha): 10
Plant response rating (0 to 10 scale), Chickweed (chickweed; PREEMERGENCE, Rate 200 g/ha): 10
Plant response rating, Chickweed (chickweed; Rate 200 g/ha, POSTEMERGENCE): 10
Plant response rating, Corn (corn [2]; POSTEMERGENCE, Rate 50 g/ha): 5
Plant response rating, Corn (corn [2]; PREEMERGENCE, Rate 50 g/ha): 2
Plant response rating (0 to 10 scale), Corn (corn [2]; PREEMERGENCE, Rate 200 g/ha): 4
Plant response rating, Corn (corn [2]; Rate 200 g/ha, POSTEMERGENCE): 6
Plant response rating, Sugar beet (sugar beet; POSTEMERGENCE, Rate 50 g/ha): 10
Plant response rating, Sugar beet (sugar beet; PREEMERGENCE, Rate 50 g/ha): 9
Plant response rating (0 to 10 scale), Sugar beet (sugar beet; PREEMERGENCE, Rate 200 g/ha): 10
Plant response rating, Sugar beet (sugar beet; Rate 200 g/ha, POSTEMERGENCE): 10
Plant response rating, Wild buckwheat (wild buckwheat; POSTEMERGENCE, Rate 50 g/ha): 10
Plant response rating, Wild buckwheat (wild buckwheat; PREEMERGENCE, Rate 50 g/ha): 9
Plant response rating (0 to 10 scale), Wild buckwheat (wild buckwheat; PREEMERGENCE, Rate 200 g/ha): 10
Plant response rating, Wild buckwheat (wild buckwheat; Rate 200 g/ha, POSTEMERGENCE): 10
Plant response rating, Bedstraw (bedstraw [3]; POSTEMERGENCE): 100
Plant response rating (0 to 100), Bedstraw (bedstraw [3]; POSTEMERGENCE, Rate 2 g/ha): 60
Plant response rating, Bedstraw (bedstraw [3]; PREEMERGENCE): 70
Plant response rating (0 to 100), Bedstraw (bedstraw [3]; PREEMERGENCE, Rate 2 g/ha): 0
Plant response rating (0 to 100), Bedstraw (bedstraw [3]; Rate 8 g/ha, POSTEMERGENCE): 100
Plant response rating (0 to 100), Bedstraw (bedstraw [3]; Rate 8 g/ha, PREEMERGENCE): 10
Plant response rating (0 to 100), Bedstraw (bedstraw [3]; Rate 31 g/ha, PREEMERGENCE): 50
Plant response rating, Corn (corn [4]; POSTEMERGENCE): 65
Plant response rating (0 to 100), Corn (corn [4]; POSTEMERGENCE, Rate 2 g/ha): 40
Plant response rating, Corn (corn [4]; PREEMERGENCE): 30
Plant response rating (0 to 100), Corn (corn [4]; PREEMERGENCE, Rate 2 g/ha): 0
Plant response rating (0 to 100), Corn (corn [4]; Rate 8 g/ha, POSTEMERGENCE): 40
Plant response rating (0 to 100), Corn (corn [4]; Rate 8 g/ha, PREEMERGENCE): 0
Plant response rating (0 to 100), Corn (corn [4]; Rate 31 g/ha, POSTEMERGENCE): 50
Plant response rating (0 to 100), Corn (corn [4]; Rate 31 g/ha, PREEMERGENCE): 0
Plant response rating, Cotton (cotton; POSTEMERGENCE): 100
Plant response rating (0 to 100), Cotton (cotton; POSTEMERGENCE, Rate 2 g/ha): 95
Plant response rating, Cotton (cotton; PREEMERGENCE): 40
Plant response rating (0 to 100), Cotton (cotton; PREEMERGENCE, Rate 2 g/ha): 0
Plant response rating (0 to 100), Cotton (cotton; Rate 8 g/ha, POSTEMERGENCE): 100
Plant response rating (0 to 100), Cotton (cotton; Rate 8 g/ha, PREEMERGENCE): 0
Plant response rating (0 to 100), Cotton (cotton; Rate 31 g/ha, POSTEMERGENCE): 100
Plant response rating (0 to 100), Cotton (cotton; Rate 31 g/ha, PREEMERGENCE): 10
Plant response rating Downy Brome (downy brome; POSTEMERGENCE): 90
Plant response rating (0 to 100), Downy Brome (downy brome; POSTEMERGENCE, Rate 2 g/ha): 20
Plant response rating Downy Brome (downy brome; PREEMERGENCE): 70
Plant response rating (0 to 100), Downy Brome (downy brome; PREEMERGENCE, Rate 2 g/ha): 0
Plant response rating (0 to 100), Downy Brome (downy brome; Rate 8 g/ha, POSTEMERGENCE): 40
Plant response rating (0 to 100), Downy Brome (downy brome; Rate 8 g/ha, PREEMERGENCE): 0
Plant response rating (0 to 100), Downy Brome (downy brome; Rate 31 g/ha, POSTEMERGENCE): 70
Plant response rating (0 to 100), Downy Brome (downy brome; Rate 31 g/ha, PREEMERGENCE): 30
Plant response rating, Giant foxtail (giant foxtail; POSTEMERGENCE): 100
Plant response rating (0 to 100), Giant foxtail (giant foxtail; POSTEMERGENCE, Rate 2 g/ha): 20
Plant response rating, Giant foxtail (giant foxtail; PREEMERGENCE): 100
Plant response rating (0 to 100), Giant foxtail (giant foxtail; PREEMERGENCE, Rate 2 g/ha): 0
Plant response rating (0 to 100), Giant foxtail (giant foxtail; Rate 8 g/ha, POSTEMERGENCE): 40
Plant response rating (0 to 100), Giant foxtail (giant foxtail; Rate 8 g/ha, PREEMERGENCE): 0
Plant response rating (0 to 100), Giant foxtail (giant foxtail; Rate 31 g/ha, POSTEMERGENCE): 70
Plant response rating (0 to 100), Giant foxtail (giant foxtail; Rate 31 g/ha, PREEMERGENCE): 60
Plant response rating, Morningglory (morningglory; POSTEMERGENCE): 100
Plant response rating (0 to 100), Morningglory (morningglory; POSTEMERGENCE, Rate 2 g/ha): 50
Plant response rating, Morningglory (morningglory; PREEMERGENCE): 30
Plant response rating (0 to 100), Morningglory (morningglory; PREEMERGENCE, Rate 2 g/ha): 0
Plant response rating (0 to 100), Morningglory (morningglory; Rate 8 g/ha, POSTEMERGENCE): 70
Plant response rating (0 to 100), Morningglory (morningglory; Rate 8 g/ha, PREEMERGENCE): 0
Plant response rating (0 to 100), Morningglory (morningglory; Rate 31 g/ha, POSTEMERGENCE): 90
Plant response rating (0 to 100), Morningglory (morningglory; Rate 31 g/ha, PREEMERGENCE): 0
Plant response rating, Sorghum (sorghum; POSTEMERGENCE): 85
Plant response rating (0 to 100), Sorghum (sorghum; POSTEMERGENCE, Rate 2 g/ha): 30
Plant response rating, Sorghum (sorghum; PREEMERGENCE): 20
Plant response rating (0 to 100), Sorghum (sorghum; PREEMERGENCE, Rate 2 g/ha): 0
Plant response rating (0 to 100), Sorghum (sorghum; Rate 8 g/ha, POSTEMERGENCE): 50
Plant response rating (0 to 100), Sorghum (sorghum; Rate 8 g/ha, PREEMERGENCE): 0
Plant response rating (0 to 100), Sorghum (sorghum; Rate 31 g/ha, POSTEMERGENCE): 50
Plant response rating (0 to 100), Sorghum (sorghum; Rate 31 g/ha, PREEMERGENCE): 10
Plant response rating, Velvetleaf (velvetleaf; POSTEMERGENCE): 100
Plant response rating (0 to 100), Velvetleaf (velvetleaf; POSTEMERGENCE, Rate 2 g/ha): 40
Plant response rating, Velvetleaf (velvetleaf; PREEMERGENCE): 100
Plant response rating (0 to 100), Velvetleaf (velvetleaf; PREEMERGENCE, Rate 2 g/ha): 0
Plant response rating (0 to 100), Velvetleaf (velvetleaf; Rate 8 g/ha, POSTEMERGENCE): 75
Plant response rating (0 to 100), Velvetleaf (velvetleaf; Rate 8 g/ha, PREEMERGENCE): 40
Plant response rating (0 to 100), Velvetleaf (velvetleaf; Rate 31 g/ha, POSTEMERGENCE): 80
Plant response rating (0 to 100), Velvetleaf (velvetleaf; Rate 31 g/ha, PREEMERGENCE): 100
Plant response rating, Wheat (wheat; POSTEMERGENCE): 60
Plant response rating (0 to 100), Wheat (wheat; POSTEMERGENCE, Rate 2 g/ha): 30
Plant response rating, Wheat (wheat; PREEMERGENCE): 30
Plant response rating (0 to 100), Wheat (wheat; PREEMERGENCE, Rate 2 g/ha): 0
Plant response rating (0 to 100), Wheat (wheat; Rate 8 g/ha, POSTEMERGENCE): 40
Plant response rating (0 to 100), Wheat (wheat; Rate 8 g/ha, PREEMERGENCE): 0
Plant response rating (0 to 100), Wheat (wheat; Rate 31 g/ha, POSTEMERGENCE): 50
Plant response rating (0 to 100), Wheat (wheat; Rate 31 g/ha, PREEMERGENCE): 10
Plant response rating, Wild oat (wild oat; POSTEMERGENCE): 75
Plant response rating (0 to 100), Wild oat (wild oat; POSTEMERGENCE, Rate 2 g/ha): 20
Plant response rating, Wild oat (wild oat; PREEMERGENCE): 75
Plant response rating (0 to 100), Wild oat (wild oat; PREEMERGENCE, Rate 2 g/ha): 0
Plant response rating (0 to 100), Wild oat (wild oat; Rate 8 g/ha, POSTEMERGENCE): 30
Plant response rating (0 to 100), Wild oat (wild oat; Rate 8 g/ha, PREEMERGENCE): 0
Plant response rating (0 to 100), Wild oat (wild oat; Rate 31 g/ha, POSTEMERGENCE): 50
Plant response rating (0 to 100), Wild oat (wild oat; Rate 31 g/ha, PREEMERGENCE): 10
Plant response rating (0 to 100), Duck salad (duck salad; [5]): 0
Plant response rating (0 to 100), Duck salad (duck salad; [6]): 20
Plant response rating (0 to 100), Duck salad (duck salad; [7]): 80
Plant response rating Duck salad (duck salad; [8]): 85
Plant response rating (0 to 100), Barnyardgrass 2 (barnyardgrass; [5]): 0
Plant response rating (0 to 100), Barnyardgrass 2 (barnyardgrass; [6]): 95
Plant response rating (0 to 100), Barnyardgrass 2 (barnyardgrass; [7]): 100
Plant response rating Barnyardgrass 2 (barnyardgrass; [8]): 100
